Assay results as given in article PMC11396062, “The n-Butanol Extract Obtained from the Inner Bark of Tabebuia rosea (Bertol.) DC, Specioside, and Catalposide Induce Leukemia Cell Apoptosis in the Presence of Apicidin” (Molecules, 2024).

Key:
p38 MAPK = assay: Western blot p38 phosphorylation; format: cell-based, human; conditions: THP-1, APC pretreatment, p < 0.001
Protocol: (§1) THP-1 cells were seeded in 24-well plates (5 × 10^5 cells/well), and after 24 h of incubation, they were pretreated with 1 µM apicidin for 24 h and then treated with different concentrations of the n-butanol extract, catalposide, and specioside for 24 h. After treatment, the cells were lysed with an Abcam protein extraction kit (ab270054), and a phosphatase inhibitor cocktail (ab201115) was added. The supernatants of the cell extracts were quantified with a BCA protein assay (Thermo Scientific Pierce #23227, Waltham, MA, USA). Equivalent amounts of protein were electrophoresed on 10% SDS polyacrylamide gels and then electroblotted onto 0.45 μm polyvinylidene difluoride (PVDF) membranes (GE Healthcare, Chicago, IL, USA). […] The signals were detected using SuperSignal™ West Pico PLUS Chemiluminescent Substrate (Thermo Scientific Pierce cat 34577) and analyzed with a ChemiDoc XRS+ system (Bio-Rad, Hercules, CA, USA). The density of each band was measured using ImageJ software V. 1.53n, 7 November 2021 (NIH, Bethesda, MD, USA), and the protein levels were normalized to the GAPDH levels. The data are expressed as the means of three independent experiments. […]

JNK = assay: Western blot JNK phosphorylation; format: cell-based, human; conditions: THP-1, 24 h; specioside all concentrations except 60 μg/mL in presence of APC
Protocol: as §1

Hep-G2 cells = tested on: Hep-G2 cells; set-up: method as in PMID 21678519; conditions: cited from earlier work

Structure (SMILES) | phosphorylation of p38 in cells pretreated with APC compared with control (p38 MAPK) | phosphorylation of the JNK protein compared with control (JNK) | effect in Hep-G2 cells (Hep-G2 cells)
O=C(O[C@H]1[C@@H]2C=CO[C@@H](O[C@@H]3O[C@H](CO)[C@@H](O)[C@H](O)[C@H]3O)[C@@H]2[C@@]2(CO)O[C@@H]12)c1ccc(O)cc1 [Catalposide, catalposide] | significantly increased | did not significantly change | only had cytotoxic and cytostatic effects
O=C(/C=C/c1ccc(O)cc1)O[C@H]1[C@@H]2C=CO[C@@H](O[C@@H]3O[C@H](CO)[C@@H](O)[C@H](O)[C@H]3O)[C@@H]2[C@@]2(CO)O[C@@H]12 [Specioside] | significantly increased | significantly phosphorylated | –
